In patent US10294202B2, “Pyrrolidinones as herbicides” (FMC Corporation, priority 2013, dated 2019):

Columns and labels:
barnyardgrass [1] = experiment: Test A pre-/postemergence herbicide test; type: in vivo, Echinochloa crus-galli
Summary of the method: (§1)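 Seeds in loam–sand blend received preemergence directed soil spray; separately, plants 2–10 cm at one- to two-leaf stage received postemergence spray, both with test chemicals in non-phytotoxic solvent with surfactant. After ~10 days in greenhouse, injury rated visually against untreated controls, 0 (no effect) to 100 (complete control).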

corn = experiment: Test A pre-/postemergence herbicide test; type: in vivo, Zea mays
Summary of the method: as §1

morningglory = experiment: Test A pre-/postemergence herbicide test; type: in vivo, Ipomoea spp.
Summary of the method: as §1

rice = experiment: Test B flooded paddy test; type: in vivo, Oryza sativa; conditions: 250 g ai/ha, Flood; scale of 0 to 100 where 0 is no effect and 100 is complete control
Procedure: Plant species in the flooded paddy test selected from rice (Oryza sativa), sedge, umbrella (small-flower umbrella sedge, Cyperus difformis), ducksalad (Heteranthera limosa), and barnyardgrass (Echinochloa crus-galli) were grown to the 2-leaf stage for testing. At time of treatment, test pots were flooded to 3 cm above the soil surface, treated by application of test compounds directly to the paddy water, and then maintained at that water depth for the duration of the test. Treated plants and controls were maintained in a greenhouse for 13 to 15 days, after which time all species were compared to controls and visually evaluated. Plant response ratings, summarized in Table B, are based on a scale of 0 to 100 where 0 is no effect and 100 is complete control. A dash (-) response means no test result.

ducksalad = experiment: Test B flooded paddy test; type: in vivo, Heteranthera limosa; conditions: 250 g ai/ha, Flood; scale of 0 to 100 where 0 is no effect and 100 is complete control
Summary of the method: (§2)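 Scored visually 0–100 (0 no effect, 100 complete control) versus controls after 13 to 15 greenhouse days. Treatment: compound added to paddy water kept 3 cm above soil, on 2-leaf-stage plants.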

pigweed = experiment: Test A pre-/postemergence herbicide test; type: in vivo, Amaranthus retroflexus
Summary of the method: as §1

giant foxtail = experiment: Test A pre-/postemergence herbicide test; type: in vivo, Setaria faberii
Summary of the method: as §1

sedge, umbrella = experiment: Test B flooded paddy test; type: in vivo, Cyperus difformis; conditions: 250 g ai/ha, Flood; scale of 0 to 100 where 0 is no effect and 100 is complete control
Summary of the method: as §2

velvetleaf = experiment: Test A pre-/postemergence herbicide test; type: in vivo, Abutilon theophrasti
Summary of the method: as §1

wheat = experiment: Test A pre-/postemergence herbicide test; type: in vivo, Triticum aestivum
Summary of the method: as §1

crabgrass, large = experiment: Test A pre-/postemergence herbicide test; type: in vivo, Digitaria sanguinalis
Summary of the method: as §1

barnyardgrass [2] = experiment: Test B flooded paddy test; type: in vivo, Echinochloa crus-galli; conditions: 250 g ai/ha, Flood; scale of 0 to 100 where 0 is no effect and 100 is complete control
Summary of the method: as §2

[3] = Postemergence, 1000 g ai/ha, 0 to 100 scale (0 no effect, 100 complete control)
[4] = preemergence, 1000 g ai/ha, 0 to 100 scale
[5] = Postemergence, 125 g ai/ha, 0 to 100 scale, 0 is no effect, 100 is complete control
[6] = Postemergence, 500 g ai/ha, 0 to 100 scale (0 no effect, 100 complete control)
[7] = Preemergence, 125 g ai/ha, 0 to 100 scale where 0 is no effect and 100 is complete control
[8] = preemergence, 500 g ai/ha, 0 to 100 scale, 0 is no effect and 100 is complete control
[9] = Postemergence, 125 g ai/ha, 0 to 100 scale, 0 no effect, 100 complete control
[10] = Preemergence, 125 g ai/ha, visual rating on 0 to 100 scale (0 no effect, 100 complete control)
[11] = preemergence, 500 g ai/ha, 0 to 100 scale

CON(C(=O)C1C(=O)NCC1c1ccc(F)c(F)c1)c1ccccc1[N+](=O)[O-] (centres unmarked) [Compound 243]
0: Plant response rating, Corn (corn; [3]) | Plant response rating, Corn (corn; [4]) | Plant response rating, Morningglory (morningglory; [3]) | Plant response rating, Morningglory (morningglory; [4]) | Plant response rating, Rice (rice) | Plant response rating, Ducksalad (ducksalad) | Plant response rating, Pigweed (pigweed; [3]) | Plant response rating, Pigweed (pigweed; [4]) | Plant response rating, Sedge, Umbrella (sedge, umbrella) | Plant response rating, Velvetleaf (velvetleaf; [3]) | Plant response rating, Velvetleaf (velvetleaf; [4]) | Plant response rating, Wheat (wheat; [3]) | Plant response rating, Wheat (wheat; [4]) | Plant response rating, Crabgrass, Large (crabgrass, large; [3]) | Plant response rating, Barnyardgrass (barnyardgrass [2])
80: Plant response rating, Barnyardgrass (barnyardgrass [1]; preemergence, 1000 g ai/ha, 0 to 100 scale (0 no effect, 100 complete control))
90: Plant response rating, Foxtail, Giant (giant foxtail; [4]) | Plant response rating, Crabgrass, Large (crabgrass, large; [4])
60: Plant response rating, Barnyardgrass (barnyardgrass [1]; [3])
20: Plant response rating, Foxtail, Giant (giant foxtail; [3])

O=C1NCC(c2ccc(OC(F)(F)F)cc2)C1C(=O)Nc1cccc(F)c1F (racemic) [Compound 257]
0: Plant response rating, Corn (corn; [5]) | Plant response rating, Corn (corn; [7]) | Plant response rating, Corn (corn; [8]) | Plant response rating, Morningglory (morningglory; [5]) | Plant response rating, Morningglory (morningglory; [6]) | Plant response rating, Morningglory (morningglory; [7]) | Plant response rating, Morningglory (morningglory; [8]) | Plant response rating, Pigweed (pigweed; [5]) | Plant response rating, Pigweed (pigweed; [6]) | Plant response rating, Pigweed (pigweed; [7]) | Plant response rating, Pigweed (pigweed; [8]) | Plant response rating, Sedge, Umbrella (sedge, umbrella) | Plant response rating, Velvetleaf (velvetleaf; [5]) | Plant response rating, Velvetleaf (velvetleaf; [6]) | Plant response rating, Velvetleaf (velvetleaf; [7]) | Plant response rating, Velvetleaf (velvetleaf; [8]) | Plant response rating, Wheat (wheat; [7]) | Plant response rating, Wheat (wheat; [8]) | Plant response rating, Barnyardgrass (barnyardgrass [2])
80: Plant response rating, Barnyardgrass (barnyardgrass [1]; [6]) | Plant response rating, Barnyardgrass (barnyardgrass [1]; [8]) | Plant response rating, Foxtail, Giant (giant foxtail; [5]) | Plant response rating, Foxtail, Giant (giant foxtail; [7])
20: Plant response rating, Corn (corn; [6]) | Plant response rating, Wheat (wheat; [5])
70: Plant response rating, Ducksalad (ducksalad)
40: Plant response rating, Barnyardgrass (barnyardgrass [1]; [7])
15: Plant response rating, Rice (rice)
50: Plant response rating, Barnyardgrass (barnyardgrass [1]; [5])
30: Plant response rating, Wheat (wheat; [6])
90: Plant response rating, Foxtail, Giant (giant foxtail; [6]) | Plant response rating, Foxtail, Giant (giant foxtail; [8]) | Plant response rating, Crabgrass, Large (crabgrass, large; [5]) | Plant response rating, Crabgrass, Large (crabgrass, large; [6]) | Plant response rating, Crabgrass, Large (crabgrass, large; [7]) | Plant response rating, Crabgrass, Large (crabgrass, large; [8])

CC(C)(C)OC(=O)Nc1cccc(C2CNC(=O)C2C(=O)Nc2cccc(F)c2F)c1 (centres unmarked) [Compound 70]
85: Plant response rating, Ducksalad (ducksalad)
35: Plant response rating, Rice (rice)
40: Plant response rating, Wheat (wheat; [6]) | Plant response rating, Barnyardgrass (barnyardgrass [2])
60: Plant response rating, Barnyardgrass (barnyardgrass [1]; [6])
20: Plant response rating, Barnyardgrass (barnyardgrass [1]; [9]) | Barnyardgrass plant response rating (barnyardgrass [1]; [10]) | Plant response rating, Pigweed (pigweed; [6]) | Plant response rating, Foxtail, Giant (giant foxtail; [9]) | Plant response rating, Velvetleaf (velvetleaf; [6]) | Plant response rating, Wheat (wheat; [11]) | Plant response rating, Crabgrass, Large (crabgrass, large; [9])
90: Plant response rating, Barnyardgrass (barnyardgrass [1]; preemergence, 500 g ai/ha, 0 to 100 scale (0 no effect, 100 complete control)) | Plant response rating, Foxtail, Giant (giant foxtail; [11]) | Plant response rating, Crabgrass, Large (crabgrass, large; [11])
70: Foxtail, Giant plant response rating (giant foxtail; [10]) | Plant response rating, Sedge, Umbrella (sedge, umbrella) | Plant response rating, Crabgrass, Large (crabgrass, large; [6])
80: Plant response rating, Foxtail, Giant (giant foxtail; [6]) | Crabgrass, Large plant response rating (crabgrass, large; [10])
0: Plant response rating, Corn (corn; [9]) | Plant response rating, Corn (corn; [6]) | Corn plant response rating (corn; [10]) | Plant response rating, Corn (corn; [11]) | Plant response rating, Morningglory (morningglory; [9]) | Plant response rating, Morningglory (morningglory; [6]) | Morningglory plant response rating (morningglory; [10]) | Plant response rating, Morningglory (morningglory; [11]) | Plant response rating, Pigweed (pigweed; [9]) | Pigweed plant response rating (pigweed; [10]) | Plant response rating, Pigweed (pigweed; [11]) | Plant response rating, Velvetleaf (velvetleaf; [9]) | Velvetleaf plant response rating (velvetleaf; [10]) | Plant response rating, Velvetleaf (velvetleaf; [11]) | Plant response rating, Wheat (wheat; [9]) | Wheat plant response rating (wheat; [10])
